Results on 78 molecules are retold here after the METLIN SMRT retention time set (Domingo-Almenara et al. 2019).

The series can be described thus: gradient 5% acetonitrile 3 min, to 50% in 2 min, to 85% in 15 min, held 3 min, 100 µL/min. The conditions noted are these: column: Zorbax Extend-C18 2.1 x 50 mm; eluents: water / acetonitrile, 0.1% formic acid. In a few lines:
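Standards, all pure, were combined into mixtures of ~100 molecules and run at 100 μL/min on a Zorbax Extend-C18 column (2.1 × 50 mm, 1.8 μm) with water and acetonitrile, each containing 0.1% formic acid. A coupled quadrupole time-of-flight mass spectrometer operated in positive and negative ionization mode. Retention time values come from computationally picked adduct peaks, each inspected manually.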
In turn, `Cc1cc(C2CCCN2C(=O)Cc2ccccc2F)no1` (stereo not drawn) registered an RP-LC retention time of 723 s.

Turning to `CC(=O)N1CCc2cc(S(=O)(=O)C(C)CC(=O)N3CCN(c4cccc(Cl)c4)CC3)ccc21` (stereo not drawn), the RP-LC retention time was 891 s.

Consider `Cc1ccc(-n2nnc(C(=O)O)c2-c2ccccn2)cc1`, for which the RP-LC retention time worked out at 670 s.

`Cn1nc(-c2nc(C3CC3)no2)c2c1CCN(C(=O)c1ccc(F)c(F)c1)C2` yielded an RP-LC retention time of 831 s.

In turn, `Cc1sc(C)c(S(=O)(=O)N2CCCC2)c1-c1cc(C(F)(F)F)on1` registered an RP-LC retention time of 1130 s.

Molecule `CCOc1ccccc1NC(=O)C1CCCN(S(=O)(=O)c2cc(-c3noc(C)n3)cs2)C1` (stereo not drawn) had an RP-LC retention time of 1060 s.

As to `Cc1nc(-c2ccc(N3CCN(C(=O)c4ccoc4)CC3)nc2)sc1C`, the RP-LC retention time was 738 s.

As to `O=C(CN1CCN(Cc2cccc(Cl)c2)C1=O)NCc1ccc(C(F)(F)F)cc1`, the RP-LC retention time is 931 s.

Molecule `CC(C)NC(=O)N1CCCC(Cn2cnc3cccnc32)C1` (stereo not drawn) gave an RP-LC retention time of 610 s.

`c1ccc(-c2nc(C3CCNC3)no2)cc1` (stereo not drawn): the RP-LC retention time turned out to be 591 s.

For `Cc1ccc(CNC(=O)c2nc(-c3ccnc(N4CCCC4)c3)no2)o1`, the RP-LC retention time was 663 s.

`Cc1ccc(S(=O)(=O)Nc2ccc3c(c2)CCC(=O)N3CC(C)C)cc1` registered an RP-LC retention time of 887 s.

The molecule `Cc1cc(C(=O)N2CCN(c3ccc(-c4cccs4)nn3)CC2)no1` gave an RP-LC retention time of 659 s.

`COc1ccccc1CNC(=O)C1CCCN(c2nnc(C)c3c(C)n(-c4ccccc4)nc23)C1` (stereo not drawn): the RP-LC retention time worked out at 725 s.

The molecule `CCCNC(=O)N1CCC(c2cnn(-c3ccccc3)c2)CC1` came in with an RP-LC retention time of 779 s.

`CC(C)NC(=O)Cn1cc(-c2ccccc2)c2ncnc(N3CCOCC3)c21` returned an RP-LC retention time of 659 s.

Molecule `COc1ccc(OC)c(NC(=O)N2CCN(CCn3c(C(F)(F)F)nc4cccnc43)CC2)c1` displayed an RP-LC retention time of 642 s.

The molecule `CN1C(=O)c2cc(C(=O)NCc3cccc(Cl)c3)nn2CC1(C)C(=O)NCc1ccccc1` (stereo not drawn) registered an RP-LC retention time of 793 s.

Molecule `O=C(CCc1nnc2ccc(NCc3ccccc3Cl)nn12)N1CCN(c2ccccn2)CC1` yielded an RP-LC retention time of 613 s.

In turn, `COc1ccc(NC(=O)Cc2nnc(-c3ccc4ncccc4c3)o2)cc1OC` displayed an RP-LC retention time of 655 s.

In turn, `O=C1c2ccccc2C(=O)c2oc(-c3ccccc3)nc21` displayed an RP-LC retention time of 1150 s.

As for `COc1ccc2[nH]c(=O)c(CCC(=O)NCCc3ccccn3)cc2c1`, the RP-LC retention time was 576 s.

The molecule `O=C(NCc1ccc(F)c(Cl)c1)c1cn2ccccc2n1` registered an RP-LC retention time of 723 s.

In the case of `CC1CC(C)CN(C(=O)C2CCCN(C(=O)c3cc4sccc4n3C)C2)C1` (stereo not drawn), the RP-LC retention time was 963 s.

Consider `CS(=O)(=O)N1CCC(C(=O)Nc2cccc(C(F)(F)F)c2)Oc2ccccc21` (stereo not drawn), for which the RP-LC retention time is 972 s.

The molecule `COc1cccc(NC(=O)N2CCC3(CC2)NC(=O)c2cc(Cl)ccc2N3C)c1` registered an RP-LC retention time of 780 s.

`CCN1C(=O)c2cccnc2Sc2cc(C(=O)NCc3ccccc3F)ccc21`: the RP-LC retention time worked out at 803 s.

The molecule `Cc1c(CC(=O)N2CCC(C(N)=O)CC2)c(=O)oc2cc3occ(-c4ccc(F)cc4)c3cc12` yielded an RP-LC retention time of 768 s.

Take `COc1ccc(-c2noc(-c3nc(C)no3)n2)cc1OC`: the RP-LC retention time is 888 s.

Molecule `Cc1cccc(C(=O)NCC2CCCN(S(=O)(=O)c3cc(C)c(C)cc3C)C2)c1` (stereo not drawn) gave an RP-LC retention time of 1060 s.

`CCCCn1c(=O)c2ccccc2n(Cc2nc(-c3ccc(OC)c(OC)c3)no2)c1=O`: the RP-LC retention time worked out at 1060 s.

For `CCn1c(SC)nnc1-c1nn(C)c2c1CN(C(=O)c1ccccc1)CC2`, the RP-LC retention time was 740 s.

As to `O=C(NCc1cccc(Br)c1)c1ccc2ncnc(N3CCCC3)c2c1`, the RP-LC retention time stood at 679 s.

Take `Cc1[nH]nc(-c2c(C)sc(C)c2S(=O)(=O)NCCc2ccc(Cl)cc2)c1C`: the RP-LC retention time was 1130 s.

In turn, `COCCCNC(=O)C1CCN(Cc2cc3ccccc3n2Cc2ccccc2Cl)CC1` yielded an RP-LC retention time of 713 s.

The molecule `O=C(CCC1CCCN(c2cc(NC3CC3)ncn2)C1)NCCc1ccncc1` (stereo not drawn) gave an RP-LC retention time of 564 s.

Turning to `CCOC(=O)c1cc2c([nH]c1=O)CC(c1cccc(C)c1)CC2=O` (stereo not drawn), the RP-LC retention time stood at 653 s.

Molecule `CCOc1ccccc1-c1noc(CN2C(=O)COc3ccccc32)n1` displayed an RP-LC retention time of 963 s.

In turn, `Cc1ccc(NC(=O)N2CCC(C(C)C(=O)Nc3cccc(Cl)c3)CC2)cc1` (stereo not drawn) gave an RP-LC retention time of 971 s.

Molecule `CCOc1cc(-c2ccc(Cl)cc2)nc2ccc(NC(C)=O)cc12` gave an RP-LC retention time of 686 s.

Molecule `Cc1cc2c(c(=O)n(-c3ccccc3)c(=O)n2CC(=O)Nc2cccc(C#N)c2)n1C` displayed an RP-LC retention time of 784 s.

In turn, `Cc1nc2nc(-c3ccc(C(C)(C)C)cc3)nn2c(C)c1CC(=O)N1CCOCC1` returned an RP-LC retention time of 832 s.

In turn, `COc1ccc(-c2ncc3c(n2)CCN(C(=O)Nc2cc(Cl)ccc2C)C3)cc1` yielded an RP-LC retention time of 984 s.

On to `Cc1ccccc1CNS(=O)(=O)c1cn(C(C)C)c2ncccc12`, for which the RP-LC retention time was 960 s.

Take `CCOC(=O)c1nn(-c2ccc(F)cc2)c(=O)c2c(NC(=O)C3CCCCC3)scc12`: the RP-LC retention time turned out to be 1250 s.

As to `O=C(CCc1nc(C2=CCN(Cc3ccc(Cl)cc3)CC2)no1)NC1CC1`, the RP-LC retention time stood at 890 s.

For `CC(C)OC(=O)c1ncoc1-c1ccccc1C(=O)NCC1CCCO1` (stereo not drawn), the RP-LC retention time came to 676 s.

`COc1ccc(CC(=O)Nc2cc(N3CCOCC3)ncn2)cc1OC` gave an RP-LC retention time of 582 s.

In the case of `CC(Oc1ccc(Cl)cc1Cl)C(=O)NCCn1ncccc1=O` (stereo not drawn), the RP-LC retention time amounted to 722 s.

As for `CCOc1ccc(C(=O)N2CCC3(CC2)N=C(c2ccc(Cl)cc2)NO3)cc1`, the RP-LC retention time was 922 s.

Consider `Cc1cccc(-c2noc(Cn3c(=O)n(-c4ccccc4F)c(=O)c4sccc43)n2)c1`, for which the RP-LC retention time is 1030 s.

`Cc1ccccc1NC(=O)N1CCC(n2cnc3c(C)cccc3c2=O)CC1` gave an RP-LC retention time of 754 s.

`Brc1cccc(-c2noc(Cc3nnc(-c4ccccc4)o3)n2)c1` displayed an RP-LC retention time of 1090 s.

In turn, `CCOC(=O)C1=C(CN(C)Cc2ccccc2)NC(=O)NC1c1cccc(OC)c1OC` (stereo not drawn) gave an RP-LC retention time of 659 s.

On to `COC(=O)c1ccccc1NC(=O)CSc1nnc2c3cc(-c4ccc(F)cc4)nn3ccn12`, for which the RP-LC retention time was found to be 957 s.

`CCCC(=O)Nc1ccc(-n2cnc(C(=O)NC3CCCC3)c2)nc1` had an RP-LC retention time of 726 s.

Molecule `CC(=O)N1CCC2(CC1)OC(=O)C(C)=C2C(=O)NCc1ccccc1Br` gave an RP-LC retention time of 721 s.

As to `CCOc1ccc2nc(Nc3ncc4c(n3)CC(c3ccccc3)CC4=O)nc(C)c2c1` (stereo not drawn), the RP-LC retention time worked out at 831 s.

Regarding `CCCC(=O)Nc1ccc2nc(N3CCN(c4ccc(OC)cc4)CC3)cc(C(=O)O)c2c1`, the RP-LC retention time worked out at 633 s.

`CCn1ccc2cc(S(=O)(=O)N3CCCC(C(=O)NCCCc4ccccc4)C3)ccc21` (stereo not drawn) showed an RP-LC retention time of 1000 s.

For the molecule `CCOc1ccc(NC(=O)C2CC(=O)N(c3ccc4c(c3)CCN4C(C)=O)C2)cc1` (stereo not drawn), the RP-LC retention time amounted to 750 s.

`CCN(CC)C(=O)C1CCC(=O)N(c2ccc(OC)cc2)C1c1ccc(OC)c(OC)c1` (stereo not drawn) showed an RP-LC retention time of 676 s.

As for `CC1=C(c2ccc(F)cc2)S(=O)(=O)N=C1N1CCCN(C(=O)c2ccccc2F)CC1`, the RP-LC retention time is 817 s.

In turn, `CN(C)C(=O)c1ccc2c(c1)nnn2CCNC(=O)Nc1ccccc1F` displayed an RP-LC retention time of 638 s.

As to `Cc1nn(CCC(=O)Nc2ccccc2Cl)c(=O)c2nn(-c3ccccc3)c(C)c12`, the RP-LC retention time was found to be 827 s.

Take `CCCn1cc(C2=CCN(C(=O)Nc3ccc4c(c3)OCCO4)CC2)c2cccnc21`: the RP-LC retention time amounted to 846 s.

As for `CCSc1nnc(NC(=O)CNC(=O)c2ccc(=O)[nH]c2)s1`, the RP-LC retention time worked out at 571 s.

The molecule `CNC(=O)C1CCCN(c2nc3ncn(CC(=O)Nc4ccccc4C)c(=O)c3s2)C1` (stereo not drawn) had an RP-LC retention time of 628 s.

`O=C(Nc1ccc(F)cc1)N1CCN(Cc2nc3cc(-c4ccccc4)ccc3o2)CC1` returned an RP-LC retention time of 860 s.

As to `CC(C)CCNC(=O)N1CCC2(CC1)C(=O)N(C)c1ccccc12`, the RP-LC retention time worked out at 813 s.

As for `CC(C)CC(=O)Nc1ccc(-n2cnc(C(=O)N3CCN(C4CCCCC4)CC3)c2)nc1`, the RP-LC retention time was 620 s.

Consider `COc1ccc(C(=O)N(Cc2cc(OC)c(OC)c(OC)c2)CC2CCCO2)cc1` (stereo not drawn), for which the RP-LC retention time amounted to 810 s.

Molecule `Cc1cc(Cl)ccc1OCc1nc(-c2ccc3c(c2)nnn3CCC(=O)N2CCCCCC2)no1` gave an RP-LC retention time of 1180 s.

In turn, `Cc1c(C(=O)C(=O)NCc2ccc3c(c2)OCO3)c2ccccc2n1C` registered an RP-LC retention time of 820 s.

Turning to `Cc1ccc(C)c(NC(=O)Cc2csc3nc(-c4ccc(C)c(C)c4)cn23)c1`, the RP-LC retention time came out at 896 s.

The molecule `COc1ccc(-c2noc(-c3ccc(NCCCN4CCCC4)nn3)n2)cc1` yielded an RP-LC retention time of 642 s.

In turn, `Cc1cccc(N2CCN(C(=O)CN3CCN(Cc4ccc(F)cc4Cl)C3=O)CC2)c1` gave an RP-LC retention time of 957 s.

The molecule `Cc1ccc(NC(=O)N2C[C@@H](F)C[C@H]2C(=O)N2CCc3ccccc3C2)cc1C` gave an RP-LC retention time of 817 s.
